Results on one molecule are retold here after paper PMC7830115, “Design, Synthesis, Molecular Docking, and Tumor Resistance Reversal Activity Evaluation of Matrine Derivative with Thiophene Structure” (Molecules, 2021).

Data set [1] in a line: Serum ALT, AST and Cr by ELISA. It counts as in vivo, BALB/C nude mice. The settings on record: groups: vehicle, CDDP 5 mg/kg, 3f 40 mg/kg, combination; ELISA at sacrifice. As for the experimental part: Finally, to evaluate the combination inhibitory effects of compound 3f with CDDP in vivo, the subcutaneous tumor-bearing model was applied by using strain of BALB/C nude mice. In detail, 32 BALB/C nude mice without tumor were purchased and CNE2/CDDP cells (2 × 10^7) were subcutaneously injected into the right flank of each mouse to make tumor burden. Then, the 32 mice with tumor burden were divided into four groups which receive vehicle, CDDP (5 mg/kg), compound 3f (40 mg/kg), and CDDP with 3f combination treatments (5mg/kg for CDDP and 40 mg/kg for 3f), respectively, through intraperitoneal injection with two times a week for one month. […] The adverse effects of treatment were also tested by detecting serum concentration of Alanine Aminotransferase (ALT), Aspartate aminotransferase (AST), and creatinine (Cr).
Mice were sacked at the time of the animal sacrifice and blood was collected to detect ALT, AST, and Cr. Immediately, serum was separated by centrifugation at 2000 g, and ALT, Cr, and AST were determined using ELISA kits (Shanghai Enzyme-linked Biotechnology Co., Ltd., catalog: ml063179, ml058577, and ml057581) according to the manufacture instructions. The absorbance of the plates was read at 450 nm using an automated microplate reader (Bio-Tek, Winooski, VT, USA).
(In general: ELISA stands for enzyme-linked immunosorbent assay.)

The subject of data set [2] is CNE2/CDDP cells. The data set is described as follows: Synergistic inhibitory effect with CDDP, combination index (Chou-Talalay). Format: cell-based. The settings on record: treated simultaneously with 3f (20, 40, 60 µM) and CDDP (5, 10, 15 µM), 72 h; CI < 1 synergism. The protocol: To determine whether compound 3f display synergistic inhibitory effects with CDDP against CNE2/CDDP cells, an MTT assay was performed. Cells were co-treated with compound 3f and CDDP or treated with CDDP or 3f alone. There are 9 groups of the combination between 3f and CDDP (Table 2). Inhibition rates were calculated, and the fraction affected (Fa) and CI (Combination Index) were generated for each group, and dose–effect curves were obtained. The CI greater than, equal to, and less than 1.0 indicate antagonistic, additive and synergistic effects, respectively.
The combination index (CI) was evaluated using Calcusyn 2.0 based on the Chou-Talalay method. Data from cell viability assays were applied to the CI calculation.
Figure 2 Synergistic inhibitory effects of compound 3f with CDDP in CNE2/CDDP cells. CNE2/CDDP cells were cultured with 3f and/or CDDP. After 72 h, 3-(4,5-dimethyl-2-thiazolyl)-2,5-diphenyl-2-H-tetrazolium bromide (MTT) was added. Two hours later, optical density (OD) was detected, and the inhibition rate was quantified. Combination Index (CI) plots were then generated using the Chou-Talay method and Calcusyn software.

Data set [3] relates to CNE2/CDDP cells. Put plainly: Apoptosis assay (Annexin V-FITC/PI, FACS). The settings on record: 24 h, mean ± SD. Format: cell-based. As for the experimental part: Subsequently, to further verify whether the synergistic effects of compound 3f with CDDP involved cell death, an apoptosis assay was conducted. CNE2/CDDP cells were co-treated with CDDP and compound 3f, or CDDP and 3f alone for 24 h. Then, cells were harvested for staining by using an apoptosis kit, following FACS detection (Figure 3a). Then, the data from three independent experiments were analyzed and the results were shown in the form of histogram (Figure 3b).
CNE2/CDDP cells (3 × 10^5) were seeded into a 6-well plate for each well. Twenty-four hours later, medium was removed and cells were treated with different compounds for […]. Then, cells were harvested, washed with cold PBS, and stained with Annexin V-FITC and PI for 15 min in dark. Finally, samples were analyzed by flow cytometer.
Figure 3 Compound 3f (40 µM) increased apoptosis rate of CDDP (4 µg/mL) in CNE2/CDDP cells. (a), representative apoptosis detection by FACS. (b), three independent experiments of apoptosis assays were analyzed and p-value was calculated. Data are represented as mean ± SD. Bar means SD value * p < 0.05, compared with CDDP; # p < 0.05, compared with 3f.

Another data set deals with CNE2/CDDP. Put plainly: MTT cytotoxicity assay, CNE2/CDDP. Format: cell-based. The settings on record: Homo sapiens, CNE-2, 72 h, cisplatin resistant cell line, mean ± SD. As for the experimental part: (§1) Prior to determining the combined inhibitory effects against NPC CDDP-resistance cells, the cytotoxicity effects of these 8 derivatives were evaluated against three NPC cell lines (CNE2, HONE1, and HK-1) and CDDP resistance cell line (CNE2/CDDP) by using MTT (3-(4,5-dimethyl-2-thiazolyl)-2,5-diphenyl-2-H-tetrazolium bromide) assays. […] Moreover, a liver normal cell LO2 was involved to evaluate the selectivity of these 8 compounds by using MTT assays.
(§2) Nasopharyngeal carcinoma cells (CNE2, HONE1, and CNE2/CDDP) were purchased from Shanghai Aulu Biological Technologh Co., Ltd. (Shanghai, China). HK-1 cell was purchased from Shanghai Shunran Biological Technologh Co., Ltd. CNE2, HONE1, and HK-1 were cultured in DMEM medium supplemented with 10% fetal bovine serum, 1% penicillin-streptomycin. CDDP-resistant NPC cell CNE2/CDDP was cultured in DMEM medium supplemented with CDDP to sustain its drug resistance. Cell viability was detected using the MTT assay. All the 8 derivatives were resolved with DMSO to make a storage solution at 1 M, and CDDP was resolved with phosphate buffer saline (PBS) to make a storage solution at 100 mM. The maximum concentrations of these 8 derivatives and CDDP used in MTT assays were set as 1 mM and 100 µM diluted with DMEM medium, respectively. Medium with 0.1% DMSO was set as control. To begin, an initial MTT assay was conducted to evaluate the cytotoxicity of 3a~3h with a dose range of 50, 100, 200, 400, and 800 µM. Then, a more precise dose range was set to calculate the IC50 of each compound (For 3a~3e: 50, 100, 200, 400, 600, and 800 µM; for 3f~3h: 12.5, 25, 50, 100, 200, and 400 µM). Then, 5000 cells were seeded in a 96-well plate for each well and treated with respective compounds at different concentrations for 72 h following additional treatment with MTT for 2~3 h. Then, MTT was removed and 150 µL DMSO was added into each well and the absorption values were measured at 490 nm using a SpectraMAX M5plate reader (Silicon Valley, CA, USA).

The next data set has as its system HK-1. The data set is described as follows: MTT cytotoxicity assay, HK-1. Format: cell-based. The settings on record: HK-1, 72 h, mean ± SD. As for the experimental part: as §1, §2
For data set [4], the system named is NPC cell lines (CNE2, HONE1, and HK-1) and CDDP resistance cell line (CNE2/CDDP). Put plainly: MTT cytotoxicity, summary over NPC cell lines and CDDP resistance cell line. It counts as cell-based. The settings on record: range over CNE2, HONE1, HK-1 and CNE2/CDDP, read-out: IC50, anti-proliferative effects. As for the experimental part: as §1
Nasopharyngeal carcinoma cells (CNE2, HONE1, and CNE2/CDDP) were purchased from Shanghai Aulu Biological Technologh Co., Ltd. (Shanghai, China). HK-1 cell was purchased from Shanghai Shunran Biological Technologh Co., Ltd. CNE2, HONE1, and HK-1 were cultured in DMEM medium supplemented with 10% fetal bovine serum, 1% penicillin-streptomycin. CDDP-resistant NPC cell CNE2/CDDP was cultured in DMEM medium supplemented with CDDP to sustain its drug resistance. Cell viability was detected using the MTT assay. All the 8 derivatives were resolved with DMSO to make a storage solution at 1 M, and CDDP was resolved with phosphate buffer saline (PBS) to make a storage solution at 100 mM. […] Then, MTT was removed and 150 µL DMSO was added into each well and the absorption values were measured at 490 nm using a SpectraMAX M5plate reader (Silicon Valley, CA, USA).

Regarding `S=C1C(=Cc2ccc(Cl)s2)CCC2C3CCCN4CCCC(CN12)C34` (stereo not shown) [3f, 14-((5-chlorothiophen-2-yl)methylene)thiomatrine], in data set [1], the “serum concentrations of ALT, AST, and Cr” value was “no significant changes”. Further, in the data set on CNE2/CDDP cells [2], the “CI (Combination Index)” value was “less than 1”. The “cell apoptosis, treatment alone” value in the data set on CNE2/CDDP cells [3] (CDDP 4 µg/mL or 3f 40 µM alone, three independent experiments) is 9.97 ± 1.36. The “cell apoptosis, combined treatment with CDDP” value with CNE2/CDDP cells [3] (CDDP (4 µg/mL) and 3f (40 µM) combined) is recorded as 15.53 ± 1.61. The IC50 is 91.4 ± 8.8 µM in the data set on CNE2/CDDP, 51.3 ± 3.5 µM with HK-1 and 30 to 100 µM in data set [4].

The IC50 is the concentration at which inhibition is half-maximal.
